Test results: ChEMBL document CHEMBL1201862, “PubChem BioAssay data set” (2004)
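How tested: cells in 96-well plates exposed to compound for 48 hours at five concentrations. Here, GI50 denotes the concentration required for 50% inhibition of growth.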 Active and inactive are the calls of the source. Rule as the data show it: active = GI50 up to about 1.1 µM and inactive = higher.

Assays:
Assay in all cases: inhibition of tumour cell growth, NCI panel, 48 h
[1] = system: 786-0
[2] = system: A498
[3] = system: A549
[4] = system: ACHN
[5] = system: BT-549
[6] = system: CAKI-1
[7] = system: CCRF-CEM
[8] = system: COLO 205
[9] = system: DU-145
[10] = system: EKVX
[11] = system: HCC 2998
[12] = system: HCT-116
[13] = system: HCT-15
[14] = system: HL-60
[15] = system: HOP-62
[16] = system: HT-29
[17] = system: Hs-578T
[18] = system: IGROV-1
[19] = system: K562
[20] = system: KM12
[21] = system: LOX IMVI
[22] = system: M14
[23] = system: MCF7
[24] = system: MDA-MB-231
[25] = system: MDA-MB-435
[26] = system: MDA-N
[27] = system: MOLT-4
[28] = system: Malme-3M
[29] = system: NCI-H226
[30] = system: NCI-H23
[31] = system: NCI-H460
[32] = system: NCI-H522
[33] = system: NCI/ADR-RES
[34] = system: OVCAR-3
[35] = system: OVCAR-4
[36] = system: OVCAR-5
[37] = system: OVCAR-8
[38] = system: PC-3
[39] = system: RPMI-8226
[40] = system: RXF 393
[41] = system: SF-268
[42] = system: SF-295
[43] = system: SF-539
[44] = system: SK-MEL-28
[45] = system: SK-MEL-2
[46] = system: SK-MEL-5
[47] = system: SK-OV-3
[48] = system: SN12C
[49] = system: SNB-19
[50] = system: SNB-75
[51] = system: SW-620
[52] = system: T47D
[53] = system: TK-10
[54] = system: U-251
[55] = system: UACC-257
[56] = system: UACC-62
[57] = system: UO-31
[58] = system: HOP-92
[59] = system: SR

Nc1nc2cc(CNc3ccc(C(=O)NC(CCC(=O)O)C(=O)O)cc3)ccc2nc1-c1ccccc1 (configuration not stated)
GI50 [1]: > 10 µM (inactive) | GI50 [2]: > 10 µM (inactive) | GI50 [3]: > 10 µM (inactive) | GI50 [4]: > 10 µM (inactive) | GI50 [5]: > 10 µM (inactive) | GI50 [6]: > 10 µM (inactive) | GI50 [7]: > 10 µM (inactive) | GI50 [8]: > 10 µM (inactive) | GI50 [9]: > 10 µM (inactive) | GI50 [10]: > 10 µM (inactive) | GI50 [11]: > 10 µM (inactive) | GI50 [12]: > 10 µM (inactive) | GI50 [13]: > 10 µM | GI50 [14]: > 10 µM (inactive) | GI50 [15]: > 10 µM (inactive) | GI50 [16]: > 10 µM (inactive) | GI50 [17]: > 10 µM (inactive) | GI50 [18]: > 10 µM (inactive) | GI50 [19]: > 10 µM (inactive) | GI50 [20]: > 10 µM (inactive) | GI50 [21]: > 10 µM (inactive) | GI50 [22]: > 10 µM (inactive) | GI50 [23]: > 10 µM (inactive) | GI50 [24]: > 10 µM (inactive) | GI50 [25]: > 10 µM (inactive) | GI50 [26]: > 10 µM (inactive) | GI50 [27]: > 10 µM (inactive) | GI50 [28]: > 10 µM (inactive) | GI50 [29]: > 10 µM (inactive) | GI50 [30]: > 10 µM (inactive) | GI50 [31]: > 10 µM (inactive) | GI50 [32]: > 10 µM (inactive) | GI50 [33]: > 10 µM (inactive) | GI50 [34]: > 10 µM (inactive) | GI50 [35]: > 10 µM (inactive) | GI50 [36]: > 10 µM (inactive) | GI50 [37]: > 10 µM (inactive) | GI50 [38]: > 10 µM (inactive) | GI50 [39]: > 10 µM (inactive) | GI50 [40]: > 10 µM (inactive) | GI50 [41]: > 10 µM (inactive) | GI50 [42]: > 10 µM (inactive) | GI50 [43]: > 10 µM (inactive) | GI50 [44]: > 10 µM (inactive) | GI50 [45]: > 10 µM (inactive) | GI50 [46]: > 10 µM (inactive) | GI50 [47]: > 10 µM (inactive) | GI50 [48]: > 10 µM (inactive) | GI50 [49]: > 10 µM (inactive) | GI50 [50]: > 10 µM (inactive) | GI50 [51]: > 10 µM (inactive) | GI50 [52]: > 10 µM (inactive) | GI50 [53]: > 10 µM (inactive) | GI50 [54]: > 10 µM (inactive) | GI50 [55]: > 10 µM (inactive) | GI50 [56]: > 10 µM (inactive) | GI50 [57]: > 10 µM (inactive)

CCOC(=O)C1=CC(C)(C(=O)OCC)Nc2c(nc(SC)[nH]c2=O)N1 (configuration not stated)
GI50 [1]: > 10 µM (inactive) | GI50 [2]: > 10 µM (inactive) | GI50 [3]: > 10 µM (inactive) | GI50 [4]: > 10 µM (inactive) | GI50 [5]: > 10 µM (inactive) | GI50 [6]: > 10 µM (inactive) | GI50 [7]: > 10 µM (inactive) | GI50 [8]: > 10 µM (inactive) | GI50 [9]: > 10 µM (inactive) | GI50 [10]: > 10 µM (inactive) | GI50 [11]: > 10 µM (inactive) | GI50 [12]: > 10 µM (inactive) | GI50 [13]: > 10 µM | GI50 [15]: > 10 µM (inactive) | GI50 [58]: > 10 µM (inactive) | GI50 [16]: > 10 µM (inactive) | GI50 [17]: > 10 µM (inactive) | GI50 [18]: > 10 µM (inactive) | GI50 [19]: > 10 µM (inactive) | GI50 [20]: > 10 µM (inactive) | GI50 [21]: > 10 µM (inactive) | GI50 [22]: > 10 µM (inactive) | GI50 [23]: > 10 µM (inactive) | GI50 [24]: > 10 µM (inactive) | GI50 [25]: > 10 µM (inactive) | GI50 [26]: > 10 µM (inactive) | GI50 [27]: > 10 µM (inactive) | GI50 [28]: > 10 µM (inactive) | GI50 [29]: > 10 µM (inactive) | GI50 [30]: > 10 µM (inactive) | GI50 [31]: > 10 µM (inactive) | GI50 [32]: > 10 µM (inactive) | GI50 [33]: > 10 µM (inactive) | GI50 [34]: > 10 µM (inactive) | GI50 [35]: > 10 µM (inactive) | GI50 [36]: > 10 µM (inactive) | GI50 [37]: > 10 µM (inactive) | GI50 [38]: > 10 µM (inactive) | GI50 [39]: > 10 µM (inactive) | GI50 [40]: > 10 µM (inactive) | GI50 [41]: > 10 µM (inactive) | GI50 [42]: > 10 µM (inactive) | GI50 [43]: > 10 µM (inactive) | GI50 [44]: > 10 µM (inactive) | GI50 [45]: > 10 µM (inactive) | GI50 [46]: > 10 µM (inactive) | GI50 [47]: > 10 µM (inactive) | GI50 [48]: > 10 µM (inactive) | GI50 [49]: > 10 µM (inactive) | GI50 [50]: > 10 µM (inactive) | GI50 [51]: > 10 µM (inactive) | GI50 [52]: > 10 µM (inactive) | GI50 [53]: > 10 µM (inactive) | GI50 [54]: > 10 µM (inactive) | GI50 [55]: > 10 µM (inactive) | GI50 [57]: > 10 µM (inactive)

C1CCNCC1.O=C1NC(=S)N/C1=C/c1ccccc1O
GI50 [1]: > 100 µM (inactive) | GI50 [3]: > 100 µM (inactive) | GI50 [4]: > 100 µM (inactive) | GI50 [5]: > 100 µM (inactive) | GI50 [6]: > 100 µM (inactive) | GI50 [7]: > 100 µM (inactive) | GI50 [8]: > 100 µM (inactive) | GI50 [9]: > 100 µM (inactive) | GI50 [10]: > 100 µM (inactive) | GI50 [11]: 23.5 µM (inactive) | GI50 [12]: > 100 µM (inactive) | GI50 [13]: > 100 µM | GI50 [14]: > 100 µM (inactive) | GI50 [15]: > 100 µM (inactive) | GI50 [58]: > 100 µM (inactive) | GI50 [16]: > 100 µM (inactive) | GI50 [17]: 26.4 µM (inactive) | GI50 [18]: 99.1 µM (inactive) | GI50 [21]: > 100 µM (inactive) | GI50 [22]: > 100 µM (inactive) | GI50 [23]: > 100 µM (inactive) | GI50 [24]: > 100 µM (inactive) | GI50 [25]: > 100 µM (inactive) | GI50 [26]: > 100 µM (inactive) | GI50 [27]: 73.1 µM (inactive) | GI50 [28]: > 100 µM (inactive) | GI50 [29]: > 100 µM (inactive) | GI50 [30]: > 100 µM (inactive) | GI50 [32]: 92 µM (inactive) | GI50 [33]: > 100 µM (inactive) | GI50 [34]: > 100 µM (inactive) | GI50 [35]: > 100 µM (inactive) | GI50 [36]: > 100 µM (inactive) | GI50 [37]: > 100 µM (inactive) | GI50 [38]: > 100 µM (inactive) | GI50 [39]: 45.2 µM (inactive) | GI50 [40]: > 100 µM (inactive) | GI50 [41]: > 100 µM (inactive) | GI50 [42]: > 100 µM (inactive) | GI50 [43]: > 100 µM (inactive) | GI50 [44]: > 100 µM (inactive) | GI50 [45]: > 100 µM (inactive) | GI50 [46]: > 100 µM (inactive) | GI50 [47]: > 100 µM (inactive) | GI50 [48]: > 100 µM (inactive) | GI50 [49]: > 100 µM (inactive) | GI50 [59]: > 100 µM (inactive) | GI50 [51]: > 100 µM (inactive) | GI50 [52]: 56.2 µM (inactive) | GI50 [53]: > 100 µM (inactive) | GI50 [54]: > 100 µM (inactive) | GI50 [55]: > 100 µM (inactive) | GI50 [56]: > 100 µM (inactive) | GI50 [57]: 95.3 µM (inactive)
